Structures are written as SMILES. ± gives the expanded uncertainty stated by the source.

This series can be described thus: activity coefficient (dimensionless); of the first substance listed, at infinite dilution; xn = mol fraction of the nth substance listed. The settings on record: 101.33 kPa, Liquid, Chromatography, x1 = 0.

`C1=CCCCC1` [cyclohexene] + CC[N+](C)(CC)CCOC.O=S(=O)([N-]S(=O)(=O)C(F)(F)F)C(F)(F)F: the activity coefficient by setting is: (318.15 K) 5.83 ± 0.5; (328.15 K) 5.56 ± 0.48; (338.15 K) 5.33 ± 0.46; (348.15 K) 5.16 ± 0.45; (358.15 K) 4.93 ± 0.43.

Turning to `Cc1ccccc1C` [1,2-dimethylbenzene] + CC[N+](C)(CC)CCOC.O=S(=O)([N-]S(=O)(=O)C(F)(F)F)C(F)(F)F, the activity coefficient (318.15 K) came to 1.93 ± 0.17; the activity coefficient (328.15 K) was determined as 1.94 ± 0.17; the activity coefficient (338.15 K) came to 1.95 ± 0.17; the activity coefficient (348.15 K) came to 1.96 ± 0.17; the activity coefficient (358.15 K) is 1.97 ± 0.17.

For `CCCO` [propan-1-ol] + CC[N+](C)(CC)CCOC.O=S(=O)([N-]S(=O)(=O)C(F)(F)F)C(F)(F)F, the activity coefficient (318.15 K) was determined as 2.26 ± 0.19; the activity coefficient (328.15 K) came to 2.04 ± 0.18; the activity coefficient (338.15 K) stood at 1.87 ± 0.16; the activity coefficient (348.15 K) amounted to 1.72 ± 0.15; the activity coefficient (358.15 K) is 1.59 ± 0.13.

In the case of `c1ccccc1` [benzene] + CC[N+](C)(CC)CCOC.O=S(=O)([N-]S(=O)(=O)C(F)(F)F)C(F)(F)F, the activity coefficient runs as follows: (318.15 K) 1.03 ± 0.08; (328.15 K) 1.04 ± 0.09; (338.15 K) 1.05 ± 0.09; (348.15 K) 1.07 ± 0.09; (358.15 K) 1.07 ± 0.09.

For the compound `CCCCCCCC` [octane] + CC[N+](C)(CC)CCOC.O=S(=O)([N-]S(=O)(=O)C(F)(F)F)C(F)(F)F, the activity coefficient runs as follows: (318.15 K) 38.3 ± 3.3; (328.15 K) 34.8 ± 3; (338.15 K) 31.9 ± 2.8; (348.15 K) 29.5 ± 2.6; (358.15 K) 27 ± 2.3.

As to `CCc1ccccc1` [ethylbenzene] + CC[N+](C)(CC)CCOC.O=S(=O)([N-]S(=O)(=O)C(F)(F)F)C(F)(F)F, the activity coefficient is, setting by setting: (318.15 K) 2.24 ± 0.19; (328.15 K) 2.25 ± 0.19; (338.15 K) 2.26 ± 0.19; (348.15 K) 2.28 ± 0.2; (358.15 K) 2.29 ± 0.2.

In the case of `CCCCC(C)=O` [2-hexanone] + CC[N+](C)(CC)CCOC.O=S(=O)([N-]S(=O)(=O)C(F)(F)F)C(F)(F)F, the activity coefficient stood at 1.14 ± 0.09 (318.15 K); 1.15 ± 0.1 (328.15 K); 1.16 ± 0.1 (338.15 K); 1.18 ± 0.1 (348.15 K); 1.19 ± 0.1 (358.15 K).

Turning to `CO` [methanol] + CC[N+](C)(CC)CCOC.O=S(=O)([N-]S(=O)(=O)C(F)(F)F)C(F)(F)F, the activity coefficient reads like this: (318.15 K) 1.33 ± 0.11; (328.15 K) 1.26 ± 0.11; (338.15 K) 1.15 ± 0.1; (348.15 K) 1.09 ± 0.09; (358.15 K) 1.01 ± 0.08.

For the compound `COC(C)(C)C` [2-methoxy-2-methylpropane] + CC[N+](C)(CC)CCOC.O=S(=O)([N-]S(=O)(=O)C(F)(F)F)C(F)(F)F, the activity coefficient (318.15 K) is 2.62 ± 0.23; the activity coefficient (328.15 K) worked out at 2.63 ± 0.23; the activity coefficient (338.15 K) amounted to 2.65 ± 0.23; the activity coefficient (348.15 K) amounted to 2.67 ± 0.23; the activity coefficient (358.15 K) was found to be 2.67 ± 0.23.

As for `CC(C)CC(C)(C)C` [2,2,4-trimethylpentane] + CC[N+](C)(CC)CCOC.O=S(=O)([N-]S(=O)(=O)C(F)(F)F)C(F)(F)F, the activity coefficient turned out to be 25.7 ± 2.2 (318.15 K); 23.8 ± 2.1 (328.15 K); 21.7 ± 1.9 (338.15 K); 21 ± 1.8 (348.15 K); 20 ± 1.7 (358.15 K).

On to `CCCCO` [butan-1-ol] + CC[N+](C)(CC)CCOC.O=S(=O)([N-]S(=O)(=O)C(F)(F)F)C(F)(F)F, for which the activity coefficient (318.15 K) was found to be 2.96 ± 0.26; the activity coefficient (328.15 K) was found to be 2.63 ± 0.23; the activity coefficient (338.15 K) amounted to 2.39 ± 0.21; the activity coefficient (348.15 K) amounted to 2.18 ± 0.19; the activity coefficient (358.15 K) came out at 2 ± 0.17.

As to `c1ccsc1` [thiophene] + CC[N+](C)(CC)CCOC.O=S(=O)([N-]S(=O)(=O)C(F)(F)F)C(F)(F)F, the activity coefficient runs as follows: (318.15 K) 0.906 ± 0.075; (328.15 K) 0.912 ± 0.075; (338.15 K) 0.925 ± 0.076; (348.15 K) 0.937 ± 0.077; (358.15 K) 0.94 ± 0.077.

Take `C=Cc1ccccc1` [styrene] + CC[N+](C)(CC)CCOC.O=S(=O)([N-]S(=O)(=O)C(F)(F)F)C(F)(F)F: the activity coefficient was found to be 1.3 ± 0.11 (318.15 K); 1.3 ± 0.11 (328.15 K); 1.31 ± 0.11 (338.15 K); 1.34 ± 0.11 (348.15 K); 1.36 ± 0.11 (358.15 K).

For the compound `CCC[N+](=O)[O-]` [1-nitropropane] + CC[N+](C)(CC)CCOC.O=S(=O)([N-]S(=O)(=O)C(F)(F)F)C(F)(F)F, the activity coefficient was 0.78 ± 0.066 (318.15 K); 0.778 ± 0.065 (328.15 K); 0.775 ± 0.065 (338.15 K); 0.772 ± 0.065 (348.15 K); 0.77 ± 0.065 (358.15 K).

Turning to `O` [water] + CC[N+](C)(CC)CCOC.O=S(=O)([N-]S(=O)(=O)C(F)(F)F)C(F)(F)F, the activity coefficient reads like this: (318.15 K) 1.9 ± 0.16; (328.15 K) 1.73 ± 0.15; (338.15 K) 1.6 ± 0.14; (348.15 K) 1.46 ± 0.12; (358.15 K) 1.32 ± 0.11.

With `CC1CCCCC1` [methylcyclohexane] + CC[N+](C)(CC)CCOC.O=S(=O)([N-]S(=O)(=O)C(F)(F)F)C(F)(F)F, the activity coefficient is 14.9 ± 1.3 (318.15 K); 13.8 ± 1.2 (328.15 K); 12.9 ± 1.1 (338.15 K); 12 ± 1 (348.15 K); 11.2 ± 1 (358.15 K).

Take `C1CCOC1` [tetrahydrofuran] + CC[N+](C)(CC)CCOC.O=S(=O)([N-]S(=O)(=O)C(F)(F)F)C(F)(F)F: the activity coefficient turned out to be 0.817 ± 0.068 (318.15 K); 0.83 ± 0.069 (328.15 K); 0.845 ± 0.07 (338.15 K); 0.862 ± 0.072 (348.15 K); 0.867 ± 0.072 (358.15 K).

Consider `CCOCC` [diethyl ether] + CC[N+](C)(CC)CCOC.O=S(=O)([N-]S(=O)(=O)C(F)(F)F)C(F)(F)F, for which the activity coefficient by setting is: (318.15 K) 2.62 ± 0.23; (328.15 K) 2.6 ± 0.22; (338.15 K) 2.6 ± 0.22; (348.15 K) 2.59 ± 0.22; (358.15 K) 2.57 ± 0.22.

Regarding `C1CCCC1` [cyclopentane] + CC[N+](C)(CC)CCOC.O=S(=O)([N-]S(=O)(=O)C(F)(F)F)C(F)(F)F, the activity coefficient is 7.28 ± 0.63 (318.15 K); 6.85 ± 0.59 (328.15 K); 6.47 ± 0.56 (338.15 K); 6.12 ± 0.53 (348.15 K); 5.79 ± 0.5 (358.15 K).

On to `C=CCCCC` [hex-1-ene] + CC[N+](C)(CC)CCOC.O=S(=O)([N-]S(=O)(=O)C(F)(F)F)C(F)(F)F, for which the activity coefficient stood at 9.21 ± 0.8 (318.15 K); 8.78 ± 0.76 (328.15 K); 8.33 ± 0.72 (338.15 K); 8.07 ± 0.7 (348.15 K); 7.64 ± 0.66 (358.15 K).

As for `CCCCCC` [hexane] + CC[N+](C)(CC)CCOC.O=S(=O)([N-]S(=O)(=O)C(F)(F)F)C(F)(F)F, the activity coefficient runs as follows: (318.15 K) 18.2 ± 1.6; (328.15 K) 16.9 ± 1.5; (338.15 K) 15.8 ± 1.4; (348.15 K) 14.9 ± 1.3; (358.15 K) 14 ± 1.2.

In the case of `CC(C)=O` [acetone] + CC[N+](C)(CC)CCOC.O=S(=O)([N-]S(=O)(=O)C(F)(F)F)C(F)(F)F, the activity coefficient was found to be 0.484 ± 0.045 (318.15 K); 0.491 ± 0.046 (328.15 K); 0.499 ± 0.046 (338.15 K); 0.509 ± 0.047 (348.15 K); 0.518 ± 0.047 (358.15 K).

Regarding `C#CCCCCC` [1-heptyne] + CC[N+](C)(CC)CCOC.O=S(=O)([N-]S(=O)(=O)C(F)(F)F)C(F)(F)F, the activity coefficient reads like this: (318.15 K) 4.47 ± 0.39; (328.15 K) 4.43 ± 0.38; (338.15 K) 4.39 ± 0.38; (348.15 K) 4.35 ± 0.38; (358.15 K) 4.29 ± 0.37.

Take `CCOC(C)(C)C` [2-ethoxy-2-methylpropane] + CC[N+](C)(CC)CCOC.O=S(=O)([N-]S(=O)(=O)C(F)(F)F)C(F)(F)F: the activity coefficient is, setting by setting: (318.15 K) 6.09 ± 0.53; (328.15 K) 5.94 ± 0.51; (338.15 K) 5.86 ± 0.51; (348.15 K) 5.71 ± 0.49; (358.15 K) 5.59 ± 0.48.

As to `CCC(C)CC` [3-methylpentane] + CC[N+](C)(CC)CCOC.O=S(=O)([N-]S(=O)(=O)C(F)(F)F)C(F)(F)F, the activity coefficient by setting is: (318.15 K) 16.1 ± 1.4; (328.15 K) 14.9 ± 1.3; (338.15 K) 14 ± 1.2; (348.15 K) 13.1 ± 1.1; (358.15 K) 12.5 ± 1.1.

As for `CCCCCCCCC` [nonane] + CC[N+](C)(CC)CCOC.O=S(=O)([N-]S(=O)(=O)C(F)(F)F)C(F)(F)F, the activity coefficient was found to be 55.7 ± 4.8 (318.15 K); 50 ± 4.3 (328.15 K); 45.3 ± 3.9 (338.15 K); 41 ± 3.5 (348.15 K); 37.7 ± 3.3 (358.15 K).

As to `C#CCCC` [1-pentyne] + CC[N+](C)(CC)CCOC.O=S(=O)([N-]S(=O)(=O)C(F)(F)F)C(F)(F)F, the activity coefficient runs as follows: (318.15 K) 2.15 ± 0.19; (328.15 K) 2.17 ± 0.19; (338.15 K) 2.18 ± 0.19; (348.15 K) 2.19 ± 0.19; (358.15 K) 2.21 ± 0.19.

In the case of `CCCC(=O)CC` [3-hexanone] + CC[N+](C)(CC)CCOC.O=S(=O)([N-]S(=O)(=O)C(F)(F)F)C(F)(F)F, the activity coefficient (318.15 K) turned out to be 1.21 ± 0.1; the activity coefficient (328.15 K) was determined as 1.22 ± 0.1; the activity coefficient (338.15 K) was 1.23 ± 0.1; the activity coefficient (348.15 K) is 1.24 ± 0.1; the activity coefficient (358.15 K) amounted to 1.25 ± 0.1.

For the compound `CCCCCCCCCC` [decane] + CC[N+](C)(CC)CCOC.O=S(=O)([N-]S(=O)(=O)C(F)(F)F)C(F)(F)F, the activity coefficient (318.15 K) turned out to be 82 ± 7.1; the activity coefficient (328.15 K) stood at 72.7 ± 6.3; the activity coefficient (338.15 K) stood at 65.4 ± 5.7; the activity coefficient (348.15 K) turned out to be 58.1 ± 5; the activity coefficient (358.15 K) stood at 52.6 ± 4.6.

These data come from the NIST ThermoML archive (doi:10.1016/j.jct.2016.07.017).
